# Results reported in ChEMBL document CHEMBL1201862, “PubChem BioAssay data set” (2004).
# The source made the active and inactive calls.
# Tests used:
# [1] = molecular target: Nuclear receptor subfamily 5 group A member 2 (Homo sapiens, UniProt O00482); assay type: functional, cell-based;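 further: HEK293T cells transfected with LRH-1 and a StAR promoter luciferase reporter; potency for inhibitors that lower LRH-1 driven reporter light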
# Steroidogenic factor 1 = Steroidogenic factor 1 (Homo sapiens, UniProt Q13285); experiment: Counterscreen for inverse agonists of the liver receptor homolog-1 (LRH-1; NR5A2): Luminescence-based cell-based high throughput dose response assay to identify inverse agonists of the Steroidogenic Factor 1 Nuclear Receptor (SF1; NR5A1).; assay type: functional
# [2] = StAR promoter reporter inhibition counter-screen, dose response, counter-screen for LRH-1 inverse agonist project, cell-based, luminescence, luciferase reporter (AID 651969); assay type: functional
# [3] = Fluorescence-based cell-based high throughput dose response assay for inhibitors of the interaction of nucleotide-binding oligomerization domain containing 2 (NOD2) and the receptor-interacting serine-threonine kinase 2 (RIPK2).; assay type: functional; details: Homo sapiens
# [4] = molecular target: Heat shock protein HSP 90-alpha (Homo sapiens, UniProt P07900); assay type: functional, organism-based
# [5] = molecular target: T1, Microphthalmia-associated transcription factor (Homo sapiens, UniProt O75030); experiment: TRPM1 promoter luciferase signal decrease, dose response, MITF inhibitor project, cell-based, SK-MEL-5, cherry-picked, set 3 (AID 493073); assay type: functional
# T1 sequence (O75030 whole entry): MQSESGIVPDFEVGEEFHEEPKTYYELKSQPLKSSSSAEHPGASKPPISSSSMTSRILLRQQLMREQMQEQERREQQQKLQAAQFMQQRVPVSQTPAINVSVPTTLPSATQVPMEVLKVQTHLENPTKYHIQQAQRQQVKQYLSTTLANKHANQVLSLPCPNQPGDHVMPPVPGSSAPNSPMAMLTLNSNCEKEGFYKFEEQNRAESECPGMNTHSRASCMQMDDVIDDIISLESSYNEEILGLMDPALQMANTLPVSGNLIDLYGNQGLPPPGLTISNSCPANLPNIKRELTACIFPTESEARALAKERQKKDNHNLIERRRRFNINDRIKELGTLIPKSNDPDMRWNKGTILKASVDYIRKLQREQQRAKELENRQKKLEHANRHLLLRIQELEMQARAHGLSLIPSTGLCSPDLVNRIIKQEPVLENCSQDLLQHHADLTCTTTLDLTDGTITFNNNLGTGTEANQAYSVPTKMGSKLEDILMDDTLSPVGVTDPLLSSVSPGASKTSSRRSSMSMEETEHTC
# Beta Lactamase = Beta Lactamase (Pseudomonas aeruginosa, UniProt Q932Y6); experiment: beta-lactamase reporter inhibitor potency, dose response, artefact control for NOD2-RIPK2 interaction inhibitor project, BLA reporter cells, FRET fluorescence (AID 651552); assay type: functional, cell-based
# X-box-binding protein 1 = molecular target: T2, X-box-binding protein 1 (Homo sapiens, UniProt P17861); assay type: functional, Cricetulus griseus;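 further: confirmatory dose-response counter-screen serving a CHOP assay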
# T2 sequence (P17861 whole entry): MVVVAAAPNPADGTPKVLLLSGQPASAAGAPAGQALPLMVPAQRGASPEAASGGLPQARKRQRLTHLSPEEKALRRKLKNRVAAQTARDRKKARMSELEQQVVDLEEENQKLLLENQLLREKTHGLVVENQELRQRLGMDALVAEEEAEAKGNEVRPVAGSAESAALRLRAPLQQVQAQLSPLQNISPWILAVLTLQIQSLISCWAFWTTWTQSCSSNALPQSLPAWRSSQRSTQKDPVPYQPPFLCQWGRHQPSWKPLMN
# Protein Wnt-3a [6] = molecular target: T3, Protein Wnt-3a (Mus musculus, UniProt P27467); experiment: SAR analysis of small molecule antagonists of Gli-SUFU in a Wnt3a luminescent reporter assay.; assay type: functional
# [7] = Luminescence Cell-Based Dose Response HTS to Identify Inhibitors of 5'UTR Stem-Loop Driven Prion Protein mRNA Translation in H4 Neuroglioblastoma Cells. [Related pubchem assays: 1827 (Project Summary), 1813 (Primary HTS)]; assay type: functional
# [8] = HEK293T cell cytotoxicity, dose response, cytotoxicity control for HIV Vif inhibitor project, cherry-picks (AID 652208); assay type: functional, cell-based
# INS1 = experiment: beta cell apoptosis inhibitors, cytokine rescue, dose response, luminescence, retest (AID 449756); assay type: functional, cell-based; details: Rattus norvegicus;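 further: cell death triggered by IL-1 beta plus TNF-alpha plus IFN-gamma mixture; protective hits raise ATP signal compared with cytokine alone wells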
# [9] = molecular target: G-protein coupled receptor 55 (Homo sapiens, UniProt Q9Y2T6); experiment: GPR55 agonists via beta-arrestin recruitment, primary screen, imaging, U2OS cells, beta-arrestin-GFP redistribution (AID 1961); assay type: functional
# [10] = inhibitors of SNCA 5'UTR-driven reporter translation, confirmation, H4 neuroglioma cells, luminescence (AID 1988); assay type: functional, cell-based
# [11] = inhibitors of firefly luciferase expression or activity, dose response, H4 neuroglioma cells, luminescence (AID 1990); assay type: functional, cell-based
# [12] = T. cruzi intracellular amastigote growth inhibition, dose response, imaging, CA-I/72 strain, bovine embryo skeletal muscle, dry powder (AID 651885); assay type: functional, cell-based
# [13] = molecular target: T4, Rac GTPase-activating protein 1 (Homo sapiens, UniProt Q9H0H5); experiment: MgcRacGAP GTPase-activating activity inhibitors, confirmation, biochemical, ADP Hunter fluorescence, primary and confirmatory (AID 624330); assay type: functional
# T4 sequence (Q9H0H5 whole entry): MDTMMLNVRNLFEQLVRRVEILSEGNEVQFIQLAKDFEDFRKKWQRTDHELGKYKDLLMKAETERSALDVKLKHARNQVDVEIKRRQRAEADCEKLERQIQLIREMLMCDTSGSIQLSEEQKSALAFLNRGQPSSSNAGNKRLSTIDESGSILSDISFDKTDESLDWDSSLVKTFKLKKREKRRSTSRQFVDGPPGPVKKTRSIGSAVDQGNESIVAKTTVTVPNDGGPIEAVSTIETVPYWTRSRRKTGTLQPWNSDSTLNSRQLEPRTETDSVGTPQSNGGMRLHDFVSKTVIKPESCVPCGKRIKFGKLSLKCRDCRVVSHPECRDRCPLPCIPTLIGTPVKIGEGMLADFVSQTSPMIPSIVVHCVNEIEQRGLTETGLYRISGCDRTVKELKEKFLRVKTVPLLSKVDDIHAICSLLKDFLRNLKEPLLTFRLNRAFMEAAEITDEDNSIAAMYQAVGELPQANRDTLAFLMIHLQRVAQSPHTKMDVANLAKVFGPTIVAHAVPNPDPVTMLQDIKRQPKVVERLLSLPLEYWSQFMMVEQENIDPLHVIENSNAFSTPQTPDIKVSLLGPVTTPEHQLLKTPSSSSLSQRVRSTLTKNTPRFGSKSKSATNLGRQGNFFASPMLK
# Large T antigen = Large T antigen (Simian virus 40, UniProt P03070); assay type: functional, Betapolyomavirus macacae;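 further: Confirmatory-stage PubChem screen for compounds that inhibit SV40 T antigen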
# [14] = molecular target: T5, Sentrin-specific protease 1 (Homo sapiens, UniProt Q9P0U3); experiment: potency of human SENP1 inhibitors, dose response, biochemical, kinetic FRET (AID 651697); assay type: functional; details: read-out: IC50_Mean
# [15] = molecular target: T5, Sentrin-specific protease 1; experiment: Dose response confirmation of small molecule inhibitors of the catalytic domain of the SUMO protease, SENP1 in a FRET assay.; assay type: functional; details: read-out: IC50_Mean
# Beta-galactosidase = Beta-galactosidase (Escherichia coli, UniProt Q8VNN2); experiment: Dose response counterscreen for EBI2 assay utilizing the enzyme, b-galactosidase.; assay type: functional
# Protein Wnt-3a [16] = molecular target: T3, Protein Wnt-3a; experiment: Wnt3a-driven reporter signaling inhibition, dose response, selectivity assay for Gli-SUFU antagonist project, Wnt-LIGHT cells, luminescence (AID 651570); assay type: functional; details: read-out: IC50_Mean;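 further: Wnt-LIGHT reporter cells stimulated with conditioned medium from Wnt3a-producing cells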
# [17] = molecular target: Matrix metalloproteinase-14 (Homo sapiens, UniProt P50281); experiment: Dose Response confirmation of uHTS hits for a small molecule inhibitors of MT1-MMP activation in a fluorescence assay set 1.; assay type: functional
# [18] = human group III sPLA2 inhibitors, dose response, biochemical, QFRET, IC50 (AID 743457);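 further: green fluorescence rise as the enzyme cleaves BODIPY PC-A2 in liposomes; potency for inhibition of the enzyme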
# [19] = molecular target: SWI/SNF-related matrix-associated actin-dependent regulator of chromatin subfamily A member 2 (Homo sapiens, UniProt P51531); experiment: Luminescence-based cell-based high throughput dose response assay to identify activators of the function of SWI/SNF related, matrix associated, actin dependent regulator of chromatin, subfamily a, member 2 (SMARCA2, BRM).; assay type: functional
# [20] = Counterscreen for activators of the function of SWI/SNF related, matrix associated, actin dependent regulator of chromatin, subfamily a, member 2 (SMARCA2, BRM): Luminescence-based cell-based high throughput dose response assay to identify non-selective compounds using the VP16 reporter assay.; assay type: functional
# [21] = molecular target: T6, Small ubiquitin-related modifier 1 (Homo sapiens, UniProt P63165); experiment: inhibitors of SUMO1 partner interactions, dose response, biochemical, FRET (AID 624383); assay type: functional; details: read-out: IC50_Mean
# [22] = molecular target: T6, Small ubiquitin-related modifier 1; experiment: inhibitors of SUMO1 peptide binding, dose response, biochemical, fluorescence polarization, uHTS hits (AID 624382); assay type: functional; details: read-out: IC50_Mean
# [23] = molecular target: T7, Low molecular weight phosphotyrosine protein phosphatase (Homo sapiens, UniProt P24666); assay type: functional; details: read-out: IC50_Mean
# T7 sequence (P24666 whole entry): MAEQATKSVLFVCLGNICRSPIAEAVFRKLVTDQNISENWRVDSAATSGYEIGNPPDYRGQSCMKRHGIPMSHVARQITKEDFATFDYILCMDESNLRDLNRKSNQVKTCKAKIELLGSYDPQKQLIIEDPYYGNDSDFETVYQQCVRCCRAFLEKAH
# [24] = molecular target: T7, Low molecular weight phosphotyrosine protein phosphatase; assay type: functional; details: read-out: IC50_Mean; remark: listed apart in the source
# [25] = NIH/3T3 fibroblast cytotoxicity, dose response, cytotoxicity control for T. cruzi growth inhibitor project, cell-based, cherry-pick samples, set 2 (AID 651817); assay type: functional; details: NIH3T3
# [26] = intracellular Trypanosoma cruzi inhibitors in host cells – cell-based, plate reader, cherry-pick samples, set 3, dose response (AID 651818); assay type: functional;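 further: compounds incubated with infected cells for about four days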
# [27] = Late stage assay provider results from the probe development effort to identify inhibitors of the Plasmodium falciparum M17 Leucine Aminopeptidase (M17LAP): radiolabel-based cell-based dose response assay to identify compounds that inhibit P. falciparum growth in RBCs Set 2.; assay type: functional
# T5 sequence (Q9P0U3 whole entry, the tested form may be a part): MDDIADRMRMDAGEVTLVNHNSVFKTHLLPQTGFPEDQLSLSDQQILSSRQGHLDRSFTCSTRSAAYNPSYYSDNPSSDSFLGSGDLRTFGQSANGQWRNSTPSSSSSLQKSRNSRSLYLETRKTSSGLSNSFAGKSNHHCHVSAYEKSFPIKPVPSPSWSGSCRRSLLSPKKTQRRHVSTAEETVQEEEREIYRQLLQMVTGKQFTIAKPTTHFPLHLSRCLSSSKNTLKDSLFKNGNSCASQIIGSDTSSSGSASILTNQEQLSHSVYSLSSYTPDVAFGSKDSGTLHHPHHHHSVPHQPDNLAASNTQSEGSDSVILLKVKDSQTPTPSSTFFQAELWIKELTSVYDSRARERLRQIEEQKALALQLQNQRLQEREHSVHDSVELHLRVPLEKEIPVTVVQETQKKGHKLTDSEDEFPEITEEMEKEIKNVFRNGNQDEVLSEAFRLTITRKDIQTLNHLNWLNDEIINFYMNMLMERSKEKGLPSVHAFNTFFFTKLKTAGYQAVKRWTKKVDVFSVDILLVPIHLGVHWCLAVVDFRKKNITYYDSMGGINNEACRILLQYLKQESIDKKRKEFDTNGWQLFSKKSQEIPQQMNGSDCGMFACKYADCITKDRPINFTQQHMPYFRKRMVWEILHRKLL
# T3 sequence (P27467 whole entry): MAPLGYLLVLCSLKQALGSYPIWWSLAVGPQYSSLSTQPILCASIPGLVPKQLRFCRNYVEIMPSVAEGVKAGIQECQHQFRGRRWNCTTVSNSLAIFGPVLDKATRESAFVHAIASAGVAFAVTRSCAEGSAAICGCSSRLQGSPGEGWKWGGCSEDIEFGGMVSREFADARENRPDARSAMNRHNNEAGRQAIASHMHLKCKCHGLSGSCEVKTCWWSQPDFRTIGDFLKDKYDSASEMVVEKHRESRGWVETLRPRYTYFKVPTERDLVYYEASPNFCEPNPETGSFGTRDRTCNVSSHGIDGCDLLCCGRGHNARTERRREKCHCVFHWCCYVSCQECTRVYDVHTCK
# T6 sequence (P63165 whole entry): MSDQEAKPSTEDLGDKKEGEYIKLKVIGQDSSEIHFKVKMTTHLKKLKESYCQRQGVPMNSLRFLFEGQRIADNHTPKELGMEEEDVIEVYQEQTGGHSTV
# Sequence of SWI/SNF-related matrix-associated actin-dependent regulator of chromatin subfamily A member 2 (P51531 whole entry): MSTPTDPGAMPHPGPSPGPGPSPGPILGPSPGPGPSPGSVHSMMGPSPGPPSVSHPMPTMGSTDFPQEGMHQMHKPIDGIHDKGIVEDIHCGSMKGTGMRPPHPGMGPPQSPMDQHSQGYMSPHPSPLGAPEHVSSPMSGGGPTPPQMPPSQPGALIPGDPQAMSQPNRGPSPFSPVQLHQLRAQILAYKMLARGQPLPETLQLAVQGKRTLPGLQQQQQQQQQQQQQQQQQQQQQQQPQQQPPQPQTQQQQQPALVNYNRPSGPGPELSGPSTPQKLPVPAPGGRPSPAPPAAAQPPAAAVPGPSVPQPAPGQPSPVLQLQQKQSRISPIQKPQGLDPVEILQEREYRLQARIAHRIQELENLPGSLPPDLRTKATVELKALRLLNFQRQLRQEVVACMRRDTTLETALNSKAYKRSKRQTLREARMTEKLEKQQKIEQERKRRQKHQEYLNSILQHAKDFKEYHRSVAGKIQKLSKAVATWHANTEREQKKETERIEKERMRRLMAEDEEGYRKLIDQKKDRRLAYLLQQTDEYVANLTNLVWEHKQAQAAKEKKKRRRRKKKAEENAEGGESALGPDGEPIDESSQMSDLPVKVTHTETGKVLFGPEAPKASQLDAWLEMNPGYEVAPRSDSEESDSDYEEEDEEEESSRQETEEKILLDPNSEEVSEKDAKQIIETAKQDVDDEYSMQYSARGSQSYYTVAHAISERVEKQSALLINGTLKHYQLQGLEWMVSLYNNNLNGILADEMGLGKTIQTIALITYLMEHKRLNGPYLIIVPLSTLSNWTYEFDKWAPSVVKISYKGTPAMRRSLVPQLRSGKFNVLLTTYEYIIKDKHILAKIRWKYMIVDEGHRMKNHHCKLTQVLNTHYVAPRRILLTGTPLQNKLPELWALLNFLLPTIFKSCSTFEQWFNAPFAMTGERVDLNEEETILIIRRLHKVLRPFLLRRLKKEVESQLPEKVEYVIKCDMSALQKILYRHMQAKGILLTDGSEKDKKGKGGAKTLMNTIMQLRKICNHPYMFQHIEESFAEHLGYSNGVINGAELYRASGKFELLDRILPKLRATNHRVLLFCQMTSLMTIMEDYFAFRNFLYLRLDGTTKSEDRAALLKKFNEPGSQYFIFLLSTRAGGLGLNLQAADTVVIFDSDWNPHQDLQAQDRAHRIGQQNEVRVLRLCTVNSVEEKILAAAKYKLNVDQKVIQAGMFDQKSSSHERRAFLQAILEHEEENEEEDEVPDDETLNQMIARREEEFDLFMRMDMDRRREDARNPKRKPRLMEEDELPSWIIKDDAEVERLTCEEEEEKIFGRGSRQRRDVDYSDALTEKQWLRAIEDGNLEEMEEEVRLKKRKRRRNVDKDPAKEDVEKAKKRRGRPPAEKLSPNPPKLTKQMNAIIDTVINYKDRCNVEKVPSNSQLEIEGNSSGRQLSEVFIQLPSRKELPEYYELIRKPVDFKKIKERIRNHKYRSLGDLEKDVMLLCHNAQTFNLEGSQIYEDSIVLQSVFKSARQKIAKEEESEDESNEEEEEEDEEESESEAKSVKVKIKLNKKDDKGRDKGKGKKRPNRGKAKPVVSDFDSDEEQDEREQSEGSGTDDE
# Sequence of Beta Lactamase (Q932Y6 whole entry): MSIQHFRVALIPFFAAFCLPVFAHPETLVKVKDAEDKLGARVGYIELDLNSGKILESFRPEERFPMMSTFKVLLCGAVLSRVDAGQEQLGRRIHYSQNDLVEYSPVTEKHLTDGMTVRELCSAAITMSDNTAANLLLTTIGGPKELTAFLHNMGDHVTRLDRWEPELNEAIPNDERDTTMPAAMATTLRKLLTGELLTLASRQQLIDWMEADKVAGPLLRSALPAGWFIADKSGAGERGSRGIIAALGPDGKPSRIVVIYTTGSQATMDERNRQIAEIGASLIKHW
# Sequence of G-protein coupled receptor 55 (Q9Y2T6 whole entry): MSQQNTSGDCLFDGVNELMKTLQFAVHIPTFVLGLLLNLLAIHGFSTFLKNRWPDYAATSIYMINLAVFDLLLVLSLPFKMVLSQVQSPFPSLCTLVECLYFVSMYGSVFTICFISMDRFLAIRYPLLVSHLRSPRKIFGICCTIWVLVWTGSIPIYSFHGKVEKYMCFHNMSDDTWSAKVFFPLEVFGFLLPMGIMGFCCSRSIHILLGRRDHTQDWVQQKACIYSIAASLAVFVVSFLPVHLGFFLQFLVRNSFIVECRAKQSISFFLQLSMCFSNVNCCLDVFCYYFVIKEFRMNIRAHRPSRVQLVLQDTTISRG
# Sequence of Nuclear receptor subfamily 5 group A member 2 (O00482 whole entry): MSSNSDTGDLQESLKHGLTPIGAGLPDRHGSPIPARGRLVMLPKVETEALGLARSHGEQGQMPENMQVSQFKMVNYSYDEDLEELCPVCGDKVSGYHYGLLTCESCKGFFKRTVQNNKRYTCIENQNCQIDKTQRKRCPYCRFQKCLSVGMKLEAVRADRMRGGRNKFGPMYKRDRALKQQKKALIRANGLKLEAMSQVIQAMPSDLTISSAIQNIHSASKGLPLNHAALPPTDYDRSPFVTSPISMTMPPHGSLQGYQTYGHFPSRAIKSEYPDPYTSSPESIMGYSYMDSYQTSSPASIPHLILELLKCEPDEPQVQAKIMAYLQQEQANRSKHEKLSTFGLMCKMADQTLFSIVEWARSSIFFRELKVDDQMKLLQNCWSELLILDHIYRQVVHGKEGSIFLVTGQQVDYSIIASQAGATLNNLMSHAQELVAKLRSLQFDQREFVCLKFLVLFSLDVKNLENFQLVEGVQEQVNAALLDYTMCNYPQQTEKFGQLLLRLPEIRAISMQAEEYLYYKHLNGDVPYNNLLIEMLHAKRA
# Sequence of Beta-galactosidase (Q8VNN2 whole entry): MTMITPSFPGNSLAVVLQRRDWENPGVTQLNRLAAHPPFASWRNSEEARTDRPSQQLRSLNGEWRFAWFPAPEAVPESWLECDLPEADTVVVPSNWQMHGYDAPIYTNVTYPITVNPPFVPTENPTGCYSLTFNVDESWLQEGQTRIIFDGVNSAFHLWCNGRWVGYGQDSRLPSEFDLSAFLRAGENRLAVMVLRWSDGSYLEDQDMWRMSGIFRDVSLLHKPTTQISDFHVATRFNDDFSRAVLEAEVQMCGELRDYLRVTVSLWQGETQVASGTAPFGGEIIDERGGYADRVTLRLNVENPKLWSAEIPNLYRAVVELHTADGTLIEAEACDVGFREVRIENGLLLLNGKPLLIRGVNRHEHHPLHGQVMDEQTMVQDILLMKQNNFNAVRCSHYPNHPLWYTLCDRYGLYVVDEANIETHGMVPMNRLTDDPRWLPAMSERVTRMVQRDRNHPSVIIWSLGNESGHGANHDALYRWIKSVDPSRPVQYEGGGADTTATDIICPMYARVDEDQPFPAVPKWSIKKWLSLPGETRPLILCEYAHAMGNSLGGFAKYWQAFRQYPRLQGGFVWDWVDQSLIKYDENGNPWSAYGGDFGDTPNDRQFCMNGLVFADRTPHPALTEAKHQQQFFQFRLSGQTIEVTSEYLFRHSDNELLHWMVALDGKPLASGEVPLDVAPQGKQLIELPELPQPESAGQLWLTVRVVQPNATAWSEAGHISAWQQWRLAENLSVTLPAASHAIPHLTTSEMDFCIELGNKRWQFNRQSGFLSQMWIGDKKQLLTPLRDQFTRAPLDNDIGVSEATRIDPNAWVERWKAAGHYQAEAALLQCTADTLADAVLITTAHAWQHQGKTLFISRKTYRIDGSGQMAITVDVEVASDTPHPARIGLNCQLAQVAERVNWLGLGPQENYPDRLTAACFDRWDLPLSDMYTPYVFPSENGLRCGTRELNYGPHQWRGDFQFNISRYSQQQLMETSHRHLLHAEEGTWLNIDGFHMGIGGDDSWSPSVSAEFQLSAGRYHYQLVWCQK
structure (smiles),measurement,setting,value
O=C(Nc1ccccc1)c1oc2ccccc2c1NC(=O)C1CC1,IC50,[1],35.9 µM (inactive)
same,IC50,Steroidogenic factor 1,35.9 µM (inactive)
same,IC50,[2],35.9 µM (inactive)
COc1ccc(C(=O)/C=C/C(=O)N(CC(=O)NC2CCCCC2)Cc2cccs2)c(O)c1,IC50,[3],4.66 µM (active)
same,AC50,[4],2.98 µM (active)
same,AC50,[5],5.53 µM (active)
same,IC50,Beta Lactamase,24.7 µM (inactive)
same,Absolute IC50 (XBP1),X-box-binding protein 1,10 µM
O=C(Nc1cc(N2CCCCC2)ncn1)c1cccc(F)c1,IC50,Protein Wnt-3a [6],> 21.8 µM (inactive)
Nc1c(C(=O)Nc2ccc(S(=O)(=O)N3CCCC3)cc2)sc2nc3ccc(OC(F)(F)F)cc3cc12,EC50,[7],4.12 µM (active)
same,AC50,[8],15.7 µM (active)
same,AC50,INS1,3.5 µM (active)
same,EC50,[9],3.77 µM (active)
same,EC50,[10],2.05 µM (active)
same,EC50,[11],5.71 µM (inconclusive)
C[C@H]1CN([C@@H](C)CO)C(=O)c2cccc(NC(=O)c3ccncc3)c2O[C@@H]1CN(C)Cc1ccc(C(=O)Nc2ccccc2N)cc1,IC50,[12],> 20 µM (inactive)
NC(=O)N/N=C/c1ccc(N2CCOCC2)s1,IC50,[13],40.4 µM (active)
same,IC50,Large T antigen,13.8 µM (active)
same,IC50,[14],9.07 µM (active)
same,IC50,[15],11.1 µM (active)
COc1ccc2cc(C(=O)N3CCN(c4cccc(C)c4C)CC3)[nH]c2c1,IC50,Beta-galactosidase,> 80 µM (inactive)
C[N+]1=C(/C=C/Nc2ccccc2)C(C)(C)c2ccccc21,IC50,Protein Wnt-3a [16],50 µM (inactive)
same,IC50,[17],17.4 µM (active)
COc1ccc(NC(=O)NNC(=O)c2ccc3ccccc3c2O)c(OC)c1,IC50,[18],> 122 µM (inactive)
Cc1ccc2nc(O)c3cc(C(=O)N(C)Cc4ccco4)sc3c2c1,EC50,[19],> 91.2 µM (inactive)
same,EC50,[20],> 91.2 µM (inactive)
Cc1cc(C)c2nc3sc(=Cc4ccc(-c5ccccc5C(=O)O)o4)c(=O)n3c2c1,IC50,[21],5.88 µM (active)
same,IC50,[22],> 66.6 µM (inactive)
same,IC50,[23],62.9 µM (inactive)
same,IC50,[24],26.5 µM (inactive)
Cc1ccc(S(=O)(=O)Nc2ccc3c(c2)CC(=O)N([C@H](C)CO)C[C@@H](C)[C@@H](CN(C)Cc2ccc(Cl)c(Cl)c2)O3)cc1,AC50,[25],9.47 µM (active)
same,AC50,[26],3.29 µM (active)
CCCCCCCCCC(=O)NO,IC50,[27],27 µM (inactive)
